pIC50: −log10 of the molar value.
What was measured:
[1] = biological target: Dual specificity tyrosine-phosphorylation-regulated kinase 1A (Rattus norvegicus, UniProt Q63470); experiment: Inhibition of GST-tagged rat recombinant DYRK1A expressed in Escherichia coli using myelin basic protein as substrate and [gamma-33P]ATP after 30 mins by scintillation counting
[2] = biological target: Glycogen synthase kinase-3 (Sus scrofa, UniProt B2LUN4+I6LNT8); experiment: Inhibition of porcine brain GSK3alpha/beta using GS-1 as substrate
[3] = biological target: Cyclin-dependent kinase 5/CDK5 activator 1 (Homo sapiens, UniProt Q00535); experiment: Inhibition of human recombinant CDK5/p25 using [gamma-33P]ATP after 30 mins by scintillation counting; format: protein-complex assay
Sequence of Cyclin-dependent kinase 5/CDK5 activator 1 (Q00535 whole entry): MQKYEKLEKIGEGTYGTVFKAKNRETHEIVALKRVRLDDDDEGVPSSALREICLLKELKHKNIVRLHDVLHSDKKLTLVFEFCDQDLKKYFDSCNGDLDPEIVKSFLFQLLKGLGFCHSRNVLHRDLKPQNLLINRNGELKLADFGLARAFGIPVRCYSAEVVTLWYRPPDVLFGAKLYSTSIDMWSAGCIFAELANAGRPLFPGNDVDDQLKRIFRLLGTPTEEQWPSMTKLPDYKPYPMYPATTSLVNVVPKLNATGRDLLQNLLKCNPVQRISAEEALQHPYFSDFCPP
Sequence of Cyclin-dependent kinase 5/CDK5 activator 1 (Q15078 whole entry, further chain): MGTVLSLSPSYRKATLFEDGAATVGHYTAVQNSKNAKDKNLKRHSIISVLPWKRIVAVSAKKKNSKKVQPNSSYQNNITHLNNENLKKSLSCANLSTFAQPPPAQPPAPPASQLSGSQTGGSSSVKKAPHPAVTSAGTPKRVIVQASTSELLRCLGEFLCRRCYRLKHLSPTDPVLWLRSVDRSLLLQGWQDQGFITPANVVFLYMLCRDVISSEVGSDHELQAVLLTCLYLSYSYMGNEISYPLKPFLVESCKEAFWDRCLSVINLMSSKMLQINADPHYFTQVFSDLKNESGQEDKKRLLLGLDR

CCRF-CEM = experiment: Cytotoxicity against human CEM cells; format: functional, cell-based
[4] = biological target: T1, DNA topoisomerase 1 (Homo sapiens) (UniProt P11387); experiment: Human topoisomerase 1-mediated nicking of supercoiled plasmid pUC19 DNA at 100 uM by agarose gel electrophoresis
T1 sequence (whole entry): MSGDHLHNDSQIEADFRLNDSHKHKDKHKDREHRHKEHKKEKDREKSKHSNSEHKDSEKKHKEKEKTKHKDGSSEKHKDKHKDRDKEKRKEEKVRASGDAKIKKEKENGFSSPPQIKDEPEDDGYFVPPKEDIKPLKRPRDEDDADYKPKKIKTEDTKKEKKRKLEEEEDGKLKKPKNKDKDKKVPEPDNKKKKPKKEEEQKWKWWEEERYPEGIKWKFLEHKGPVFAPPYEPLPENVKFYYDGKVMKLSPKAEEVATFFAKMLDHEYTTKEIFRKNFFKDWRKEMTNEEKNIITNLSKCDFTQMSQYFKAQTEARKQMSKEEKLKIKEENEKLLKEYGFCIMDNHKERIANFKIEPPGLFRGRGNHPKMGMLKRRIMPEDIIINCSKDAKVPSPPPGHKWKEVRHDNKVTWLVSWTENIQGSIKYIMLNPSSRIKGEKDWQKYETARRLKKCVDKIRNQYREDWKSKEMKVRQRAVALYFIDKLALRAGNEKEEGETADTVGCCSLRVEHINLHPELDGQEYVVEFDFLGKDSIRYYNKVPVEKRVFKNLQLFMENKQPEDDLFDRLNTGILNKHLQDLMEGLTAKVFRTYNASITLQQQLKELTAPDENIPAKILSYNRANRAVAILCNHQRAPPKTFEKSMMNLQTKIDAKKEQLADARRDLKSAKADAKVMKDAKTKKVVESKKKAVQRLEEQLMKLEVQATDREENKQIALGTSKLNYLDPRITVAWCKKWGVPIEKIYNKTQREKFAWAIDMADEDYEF

[5] = biological target: T1, DNA topoisomerase 1 (Homo sapiens); experiment: Human topoisomerase 1-mediated nicking of supercoiled plasmid pUC19 DNA at 20 uM by agarose gel electrophoresis

Question: Which results are given for `O=c1oc2cc(O)ccc2c2c1[nH]c1ccccc12`?
Answer: pIC50 [1]: 6.30; IC50 [2]: 0.44 µM; pIC50 [3]: 5.33

Question: With `COc1ccc(-c2ccc3c(c2)[nH]c2c(=O)oc4ccc(O)cc4c23)cc1` as the molecule, how does the pIC50 [1] read?
Answer: The pIC50 was less than 5.00.

Question: What about the IC50 [2] of the same molecule?
Answer: Its IC50 is greater than 10 µM.

Question: And the pIC50 [3]?
Answer: Its pIC50 is less than 5.00.

Question: With `O=c1oc2ccc(O)cc2c2c1[nH]c1cccc(-c3ccc(O)cc3)c12` as the molecule, how does the pIC50 [1] read?
Answer: Its pIC50 is no more than 5.00.

Question: What about the IC50 [2] of the same molecule?
Answer: The IC50 was greater than 10 µM.

Question: What about the pIC50 [3] of the same molecule?
Answer: Its pIC50 is no more than 5.00.

Question: How did the pIC50 [1] turn out when `O=c1oc2ccc(O)cc2c2c1[nH]c1ccc(F)cc12` was run?
Answer: Its pIC50 is 6.68.

Question: And the IC50 [2]?
Answer: The IC50 was 2.5 µM.

Question: What about the pIC50 [3] of the same molecule?
Answer: Its pIC50 is 5.08.

Question: How did the pIC50 (CCRF-CEM) turn out when `CC[C@@]1(O)C(=O)OCc2c1cc1n(c2=O)Cc2cc3ccccc3nc2-1` [CAMPTOTHECIN] was run?
Answer: The pIC50 was 8.30.

Question: Which results are given for `O=c1oc2ccc(O)cc2c2c1[nH]c1cc3c(cc12)OCO3`?
Answer: pIC50 [1]: 5.74; IC50 [2]: > 10 µM; pIC50 [3]: 4.80

Question: Which results are given for `CCCOc1cccc2[nH]c3c(=O)oc4ccc(O)cc4c3c12`?
Answer: pIC50 [1]: 5.77; IC50 [2]: 8.1 µM; pIC50 [3]: < 5.00

Question: How did the pIC50 [1] turn out when `O=c1oc2ccc(O)cc2c2c1[nH]c1cc(O)ccc12` was run?
Answer: The pIC50 was 5.37.

Question: What about the IC50 [2] of the same molecule?
Answer: Its IC50 is greater than 10 µM.

Question: What about the pIC50 [3] of the same molecule?
Answer: Its pIC50 is less than 5.00.

Question: With `O=c1oc2ccc(O)cc2c2c1[nH]c1cccc(C(F)(F)F)c12` as the molecule, how does the pIC50 [1] read?
Answer: The pIC50 was 5.68.

Question: And the IC50 [2]?
Answer: Its IC50 is “>= 10 uM”.

Question: And the pIC50 [3]?
Answer: Its pIC50 is less than 5.00.

Question: What does the source list for `O=c1oc2ccccc2c2c1[nH]c1cccc(-c3ccc(O)cc3)c12`?
Answer: pIC50 [1]: ≤ 5.00; IC50 [2]: > 10 µM; pIC50 [3]: ≤ 5.00

Question: With `O=c1oc2ccccc2c2c1[nH]c1ccccc12` as the molecule, how does the pIC50 [1] read?
Answer: Its pIC50 is less than 5.00.

Question: And the IC50 [2]?
Answer: The IC50 was greater than 10 µM.

Question: What about the pIC50 [3] of the same molecule?
Answer: Its pIC50 is less than 5.00.

Question: Which results are given for `COc1cc(-c2c3c4cc(OC)c(O)cc4oc(=O)c3n3ccc4cc(O)c(OC)cc4c23)ccc1O` [LAMELLARIN D]?
Answer: pIC50 (CCRF-CEM): 4.82; % nicked DNA [4]: 21%; % nicked DNA [5]: 22%

Question: How did the pIC50 [1] turn out when `COc1cccc2oc(=O)c3[nH]c4ccccc4c3c12` was run?
Answer: Its pIC50 is less than 5.00.

Question: And the IC50 [2]?
Answer: The IC50 was greater than 10 µM.

Question: What about the pIC50 [3] of the same molecule?
Answer: Its pIC50 is less than 5.00.

Question: What does the source list for `Cc1cccc2[nH]c3c(=O)oc4ccc(O)cc4c3c12`?
Answer: pIC50 [1]: 6.18; IC50 [2]: 5.9 µM; pIC50 [3]: < 5.00

Question: How did the pIC50 [1] turn out when `O=c1oc2cc(O)ccc2c2c1[nH]c1ccc(O)cc12` was run?
Answer: Its pIC50 is 6.52.

Question: What about the pIC50 (CCRF-CEM) of the same molecule?
Answer: Its pIC50 is 4.41.

Question: And the IC50 [2]?
Answer: The IC50 was 0.42 µM.

Question: What about the pIC50 [3] of the same molecule?
Answer: Its pIC50 is 5.38.

Question: What about the % nicked DNA [4] of the same molecule?
Answer: Its % nicked DNA is 21%.

Question: What about the % nicked DNA [5] of the same molecule?
Answer: Its % nicked DNA is 16%.

Question: `O=c1oc2cc(O)c(O)cc2c2c1[nH]c1ccc(O)cc12` was tested. Which pIC50 [1] did it give?
Answer: The pIC50 was 5.82.

Question: And the IC50 [2]?
Answer: The IC50 was 1.3 µM.

Question: What about the pIC50 [3] of the same molecule?
Answer: Its pIC50 is less than 5.00.

Question: Which results are given for `COc1cccc2[nH]c3c(=O)oc4ccc(O)cc4c3c12`?
Answer: pIC50 [1]: 6.46; IC50 [2]: 3.3 µM; pIC50 [3]: ≤ 5.00

Question: Which results are given for `O=c1oc2ccc(O)cc2c2c1[nH]c1ccc(O)cc12`?
Answer: pIC50 [1]: 7.17; IC50 [2]: 0.31 µM; pIC50 [3]: 6.14

Question: `O=c1oc2ccc(O)cc2c2c1[nH]c1ccccc12` was tested. Which pIC50 [1] did it give?
Answer: The pIC50 was 7.13.

Question: What about the IC50 [2] of the same molecule?
Answer: The IC50 was 0.38 µM.

Question: What about the pIC50 [3] of the same molecule?
Answer: Its pIC50 is 5.57.

Question: With `O=c1oc2cc(O)ccc2c2c1[nH]c1cc(O)ccc12` as the molecule, how does the pIC50 [1] read?
Answer: The pIC50 was 5.49.

Question: And the IC50 [2]?
Answer: Its IC50 is 10 µM.

Question: What about the pIC50 [3] of the same molecule?
Answer: Its pIC50 is 5.00.

Question: With `Cc1ccc2c(c1)[nH]c1c(=O)oc3ccc(O)cc3c12` as the molecule, how does the pIC50 [1] read?
Answer: The pIC50 was 5.48.

Question: What about the IC50 [2] of the same molecule?
Answer: Its IC50 is greater than 10 µM.

Question: What about the pIC50 [3] of the same molecule?
Answer: The pIC50 was less than 5.00.

Question: With `O=c1oc2ccc(O)cc2c2c1[nH]c1ccc(C(F)(F)F)cc12` as the molecule, how does the pIC50 [1] read?
Answer: The pIC50 was no more than 5.00.

Question: What about the IC50 [2] of the same molecule?
Answer: Its IC50 is “>= 10 uM”.

Question: And the pIC50 [3]?
Answer: The pIC50 was no more than 5.00.
